Data set [1] has as its system SH-SY5Y. As to the kind of experiment: Cytotoxicity against H2O2 induced human neuroblastoma SH-SY5Y cells assessed as cell viability measured after 5 hrs by MTT assay. The format is cell-based.
Data set [2] concerns SH-SY5Y. The experiment in a line: Neuroprotective activity against H2O2-induced human SH-SY5Y cell damage assessed as protective rate at 50 uM pretreated for 1 hr followed by H2O2 addition measured after 4 hrs by MTT assay (reference value: 68.2 +/- 1.34%). In kind it is functional. To be noted: time 5 hrs.
For data set [3], the system named is SH-SY5Y. As to the kind of experiment: Neuroprotective activity against H2O2-induced human SH-SY5Y cell death assessed as early apoptotic cells at 50 uM measured by Annexin V/PI double staining base flow cytometry analysis (reference value: 15.23%). The format is functional, cell-based. In general terms: In flow cytometry, cells or beads pass a laser one at a time.

In data set [4] the test system is SH-SY5Y. As to the kind of experiment: Neuroprotective activity against H2O2-induced human SH-SY5Y cell death assessed as viable cells at 50 uM measured by Annexin V/PI double staining base flow cytometry analysis (reference value: 76.67%). In kind it is functional. The settings on record: read-out: Activity.
For data set [5], the system named is SH-SY5Y. The experiment in a line: Neuroprotective activity against H2O2-induced human SH-SY5Y cell apoptosis assessed as caspase 3 protein expression at 50 uM measured by Western blot analysis relative to control. In kind it is functional, cell-based.
Data set [6] concerns SH-SY5Y. The experiment in a line: Neuroprotective activity against H2O2-induced human SH-SY5Y cell apoptosis assessed as Bcl-2 protein expression at 50 uM measured by Western blot analysis relative to control. The format is functional, cell-based. Background: In western blotting, separated proteins are transferred to a membrane and probed.
The subject of data set [7] is SH-SY5Y. As to the kind of experiment: Neuroprotective activity against H2O2-induced human SH-SY5Y cell death assessed as late apoptotic cells at 50 uM measured by Annexin V/PI double staining base flow cytometry analysis (reference value: 7.78%). The format is functional, cell-based.
Data set [8] deals with SH-SY5Y. As to the kind of experiment: Neuroprotective activity against H2O2-induced human SH-SY5Y cell apoptosis assessed as PARP protein expression at 50 uM measured by Western blot analysis relative to control. In kind it is functional, cell-based.
Data set [9] relates to SH-SY5Y. As to the kind of experiment: Neuroprotective activity against H2O2-induced human SH-SY5Y cell death assessed as reversal of apoptosis at 50 uM pretreated for 1 hr followed by H2O2 addition measured after 4 hrs by Hoechst 33258 based fluorescence microscopy. The format is functional. The settings on record: time 5.0 hrs.
In data set [10] the test system is SH-SY5Y. As to the kind of experiment: Neuroprotective activity against H2O2-induced human SH-SY5Y cell apoptosis assessed as Bax protein expression at 50 uM measured by Western blot analysis relative to control. In kind it is functional, cell-based.
The test system of data set [11] is SH-SY5Y. The experiment in a line: Inhibition of ROS production in H2O2-induced human SH-SY5Y cells at 50 uM pretreated for 1 hr followed by H2O2 addition measured after 4 hrs by DCFH-DA based flow cytometry. The settings on record: time 5.0 hrs. The format is functional, cell-based.
In data set [12] the test system is SH-SY5Y. The experiment in a line: Neuroprotective activity against H2O2-induced human SH-SY5Y cell death assessed as necrotic cells at 50 uM measured by Annexin V/PI double staining base flow cytometry analysis (reference value: 0.32%). In kind it is functional, cell-based.

Drawing on ChEMBL document CHEMBL4834406, “Isolation, Structure Elucidation, Semi-Synthesis, and Structural Modification of C19-Diterpenoid Alkaloids from Aconitum apetalum and Their Neuroprotective Activities” (J Nat Prod, 2021), this text covers Activity, viability and inhibition for 18 compounds.

Active and inactive are the calls of the source. The calls are words filed in the database; no cut-off is given here.

For the compound `CCN1C[C@]2(COC(=O)c3ccccc3NC(=O)c3ccccc3NC(=O)C(C)(C)O)CC[C@H](OC)C34C1C(C[C@@H]32)[C@@]1(OC(C)=O)C[C@H](OC)C2C[C@@H]4[C@@H]1[C@H]2OC(C)=O`, the values for the Activity result with SH-SY5Y [1] and in the data set on SH-SY5Y [2] were “Non-Toxic” and 54.2%, respectively.
The corresponding values for `CCO[C@]12C[C@H](OC)C3C[C@H]([C@@H]1[C@H]3O)C13C4C2C[C@@H]1[C@@](COC(=O)c1ccccc1NC(=O)c1ccccc1NC(=O)C(C)(C)O)(CC[C@@H]3OC)CN4CC` are “Non-Toxic” and 58.6%.
Take `CCCCC(=O)Nc1ccccc1C(=O)Nc1ccccc1C(=O)OC[C@@]12CC[C@H](OC)C34C(C(C[C@@H]31)[C@@]1(O)C[C@H](OC)C3C[C@@H]4[C@@H]1[C@H]3OC(=O)c1ccccc1NC(=O)c1ccccc1NC(=O)CCCC)N(CC)C2`: the Activity result is “Non-Toxic” in the data set with SH-SY5Y [1] and 33% in the data set with SH-SY5Y [2].
The corresponding values for `CCN1C[C@]2(COC(=O)c3ccccc3NC(=O)c3ccccc3NC(=O)C(C)C)CC[C@H](OC)C34C1C(C[C@@H]32)[C@@]1(O)C[C@H](OC)C2C[C@@H]4[C@@H]1[C@H]2OC(=O)c1ccccc1NC(=O)c1ccccc1NC(=O)C(C)C` are “Non-Toxic” and 5.5%.
The matching figures for `CCN1C[C@]2(COC(=O)c3ccccc3NC(=O)c3ccccc3NC(=O)C(C)(O)CC)CC[C@H](OC)C34C1C(C[C@@H]32)[C@@]1(O)C[C@H](OC)C2C[C@@H]4[C@@H]1[C@H]2OC(C)=O` (stereo partly specified): “Non-Toxic” and 62.1%.
The matching figures for `CCN1C[C@]2(COC(=O)c3ccccc3NC(=O)c3ccccc3NC(=O)C(C)Cl)CC[C@H](OC)C34C1C(C[C@@H]32)[C@@]1(O)C[C@H](OC)C2C[C@@H]4[C@@H]1[C@H]2O` (stereo partly specified): “Non-Toxic” and 2.2%.
Consider `CCN1C[C@]2(COC(=O)c3ccccc3NC(=O)c3ccccc3NC(=O)C(Cl)(Cl)Cl)CC[C@H](OC)C34C1C(C[C@@H]32)[C@@]1(O)C[C@H](OC)C2C[C@@H]4[C@@H]1[C@H]2O`, for which the Activity entry is reported as “Non-Toxic” with SH-SY5Y [1] and 14.5% in the data set on SH-SY5Y [2].
The matching figures for `CCN1C[C@]2(COC(=O)c3ccccc3NC(=O)c3ccccc3NC(=O)CCCCl)CC[C@H](OC)C34C1C(C[C@@H]32)[C@@]1(O)C[C@H](OC)C2C[C@@H]4[C@@H]1[C@H]2O`: “Non-Toxic” and 15.6%.
The corresponding values for `CCN1C[C@]2(COC(=O)c3ccccc3NC(=O)c3ccccc3NC(=O)C(C)(C)O)CC[C@H](OC)C34C1C(C[C@@H]32)[C@@]1(O)C[C@H](OC)C2C[C@@H]4[C@@H]1[C@H]2OC(C)=O` are “Non-Toxic” and 48.6%.
The matching figures for `CCCC(=O)Nc1ccccc1C(=O)Nc1ccccc1C(=O)OC[C@@]12CC[C@H](OC)C34C(C(C[C@@H]31)[C@@]1(O)C[C@H](OC)C3C[C@@H]4[C@@H]1[C@H]3OC(=O)c1ccccc1NC(=O)c1ccccc1NC(=O)CCC)N(CC)C2`: “Non-Toxic” and 21.3%.
On to `CCN1C[C@]2(COC(=O)c3ccccc3NC(=O)c3ccccc3NC(C)=O)CC[C@H](OC)C34C1C(C[C@@H]32)[C@@]1(O)C[C@H](OC)C2C[C@@H]4[C@@H]1[C@H]2OC(=O)c1ccccc1NC(=O)c1ccccc1NC(C)=O`, for which the Activity entry was “Non-Toxic” with SH-SY5Y [1] and 19.9% in the data set with SH-SY5Y [2].
On to `CCN1C[C@]2(COC(=O)c3ccccc3NC(=O)c3ccccc3NC(=O)C(C)(C)O)CC[C@H](OC)C34C1C(C[C@@H]32)[C@@]1(O)C[C@H](OC)C2C[C@@H]4[C@@H]1[C@H]2OC(=O)c1ccccc1NC(=O)c1ccccc1NC(=O)C(C)(C)O`, for which the figures for the Activity entry in the data set on SH-SY5Y [1] and in the data set on SH-SY5Y [2] were “Non-Toxic” and 12.4%, respectively.
The matching figures for `CCCCCC(=O)Nc1ccccc1C(=O)Nc1ccccc1C(=O)OC[C@@]12CC[C@H](OC)C34C(C(C[C@@H]31)[C@@]1(O)C[C@H](OC)C3C[C@@H]4[C@@H]1[C@H]3O)N(CC)C2`: “Non-Toxic” and 22.5%.
The matching figures for `CCN1C[C@]2(COC(=O)c3ccccc3NC(=O)c3ccccc3NC(=O)CC(C)C)CC[C@H](OC)C34C1C(C[C@@H]32)[C@@]1(O)C[C@H](OC)C2C[C@@H]4[C@@H]1[C@H]2OC(=O)c1ccccc1NC(=O)c1ccccc1NC(=O)CC(C)C`: “Non-Toxic” and 13%.
The matching figures for `CCCCC(=O)Nc1ccccc1C(=O)Nc1ccccc1C(=O)OC[C@@]12CC[C@H](OC)C34C(C(C[C@@H]31)[C@@]1(O)C[C@H](OC)C3C[C@@H]4[C@@H]1[C@H]3O)N(CC)C2`: “Non-Toxic” and 11.7%.
Consider `CCCCC(CC)C(=O)Nc1ccccc1C(=O)Nc1ccccc1C(=O)OC[C@@]12CC[C@H](OC)C34C(C(C[C@@H]31)[C@@]1(O)C[C@H](OC)C3C[C@@H]4[C@@H]1[C@H]3O)N(CC)C2` (stereo partly specified), for which the Activity entry with SH-SY5Y [1] is listed as “Non-Toxic”; with SH-SY5Y [2], 6.5%.
The matching figures for `CCN1C[C@]2(COC(=O)c3ccccc3NC(=O)c3ccccc3NC(=O)c3ccccc3)CC[C@H](OC)C34C1C(C[C@@H]32)[C@@]1(O)C[C@H](OC)C2C[C@@H]4[C@@H]1[C@H]2OC(=O)c1ccccc1NC(=O)c1ccccc1NC(=O)c1ccccc1`: “Non-Toxic” and 10.8%.
For `CCN1C[C@]2(COC(=O)c3ccccc3NC(=O)c3ccccc3NC(=O)C(C)(C)O)CC[C@H](OC)C34C1C(C[C@@H]32)[C@@]1(O)C[C@H](OC)C2C[C@@H]4[C@@H]1[C@H]2O`, the result in the data set with SH-SY5Y [3], in the data set on SH-SY5Y [5], in the data set with SH-SY5Y [6], with SH-SY5Y [7], with SH-SY5Y [8] and in the data set on SH-SY5Y [9] was Active. Moreover, the outcome with SH-SY5Y [10] and with SH-SY5Y [12] was Active. Besides, the viability at 50 µM in the data set with SH-SY5Y [4] is 89.2%. Also, the Activity entry in the data set on SH-SY5Y [1] was “Non-Toxic”; in the data set on SH-SY5Y [2], 77.4%. Further, in the data set with SH-SY5Y [11], the inhibition result was “Active”.
